{"source": "patent US9226503B2", "about": "“Composition and method for attraction of emerald ash borer Agrilus planipennis fairmaire (coleoptera: buprestidae)” (Her Majesty the Queen in Right of Canada, as represented by …, priority 2011, dated 2016)", "key": {"A. planipennis [1]": {"tested_on": "A. planipennis", "assay": "Field trapping experiment 1 (2008), purple prism traps, Ontario", "format": "in vivo, Agrilus planipennis", "description": "Field trapping. Three trapping experiments were carried out in green ash plantations (F. pennsylvanica Marsch) with low-to-moderate A. planipennis populations about 40 km southeast of Sarnia, Ontario (42° 58′ 0 N, 82° 24′ 0 W) in 2008, 2009 and 2010. Trees at these sites were generally healthy in appearance with low or no signs of decline, and only a small number of trees had obvious signs/symptoms of infestation by A. planipennis. In Ontario sites, trees were 20-25 years old, 4-6 m tall, 10-15 cm in diameter, and spaced about 2 m apart within a row and 2.5 m between rows. In 2010, the trapping experiment was replicated at four sites in Michigan, USA, in addition to the sites in Ontario. […] Traps were checked every 2 weeks and A. planipennis were collected, counted and sexed.\nExperiment 1, conducted in Ontario in 2008, was designed to test for attractiveness of (3Z)-lactone (Bartelt et al. 2007), alone and in combination with two types of host volatiles: bark sesquiterpenes (Crook et al. 2008) and a binary blend of green leaf volatiles ((3Z)-hexenol and (2E)-hexenol) (Poland et al. 2005, de Groot et al. 2008). […] We selected Phoebe oil because it contained two additional sesquiterpenes that had been detected in ash trees and appeared to be more attractive than Manuka oil (Crook et al. 2008) and the (3Z)-hexenol and (2E)-hexenol combination based on results from de Groot et al. (2008). […]"}, "A. planipennis [2]": {"tested_on": "A. planipennis", "assay": "Field trapping 2011 experiment 1: dose-response to (3Z)-lactone with (3Z)-hexenol, dark green traps", "format": "in vivo, Agrilus planipennis", "conditions": "in combination with (3Z)-hexenol", "description": "Two trapping experiments were conducted in green and white ash plantations (F. pennsylvanica Marsch and F. americana L.) located 40-60 km southeast of Sarnia, Ontario in 2011. Trees were 20-30 yr old, 5-8 m tall, 12-18 cm in diameter, and spaced 2-3 m apart within and between rows. Five sites were used in total: four were green ash and the fifth was a white ash plantation. Trees at four of the sites generally appeared healthy with few or no signs of decline and only a few with obvious signs and symptoms of infestation by A. planipennis. At the fifth site, obvious crown decline and signs of infestation were apparent on about one-quarter of trees.\nGreen prism sticky traps (0.30 cm×35.00 cm×58.75 cm) (Synergy Semiochemicals Corp., Burnaby, BC) were used in all field trials, deployed using modified umbrella rig spreaders (Zing Products, Westport, Mass.). Traps were spaced 20-25 m apart and lure treatments replicated in randomized complete block designs. Traps were deployed either using ropes tied between two trees or using a single line over a canopy branch, as described further below for each specific experimental objective. Traps were typically checked every 2 wk and A. planipennis were collected, counted, and sexed.\nThe two trapping experiments tested the (3Z)-lactone with and without (3Z)-hexenol, at different dosages and heights within the canopy. Experiment 1 was designed to determine the optimum release rate for attractiveness of (3Z)-lactone to male A. planipennis, in combination with (3Z)-hexenol. Dark green (540-nm wavelength) sticky traps (Francese et al 2010a) were suspended using ropes tied between two trees in the mid-canopy and baited with a (3Z)-hexenol lure at release rate of (50-100 mg/day) (Synergy Semiochemicals, Burnaby, B.C.) plus a rubber septum (Wheaton) loaded with either 0, 0.1 mg, 1.0 mg, 10.0 mg, or 50.0 mg of (3Z)-lactone. Respective release rates of the lactone were estimated as ˜2.4 μg/day; ˜22 μg/day; ˜160 μg/day; and −600 μg/day, based on volatile collections on Super-Q® at 25° C. (Silk et al. 2011). (3Z)-Lactone lures were estimated to last three weeks in the field and were replaced once. Trapping was conducted from 9 June-21 July. Lure treatments were replicated 10 times with eight blocks at one site (Anika Mills) and two blocks at a second site (Nauvoo Ranch). (3Z)-Hexenol lures were not changed during the experiment.\nNumbers of A. planipennis captured in the trapping experiments were subjected to ANOVA separately for males and females. In experiment 1, ANOVA was used to test the effect of release rate on captures of females and males. Holm-Sidak comparisons were made between treatments and the control, (3Z)-hexenol alone. In experiment 2, we used the general linear model: mean catch=lactone+GLV+trap height+lactone*trap height+GLV*trap height+lactone*GLV+lactone*GLV*trap height+error, in SAS GLM (SAS Institute 1999-2003). Residuals were tested for homogeneity of variance and normality, and a ln(y+1) transformation was used where necessary. We present the untransformed last squares treatment means and their standard errors, along with statistics (P>F) from ANOVA of transformed data."}}, "data": [{"smiles": "O=C1C/C=C\\CCCCCCCCO1", "note": "[(3Z)-lactone, (3Z)-dodecen-12-olide]", "values": [{"measurement": "trap captures compared to unbaited controls", "setting": "A. planipennis [1]", "value": "not significantly attractive"}, {"measurement": "release rate beyond which captures of males decline", "setting": "A. planipennis [2]; dark green traps", "value": "ca. 160 μg/day"}, {"measurement": "trap capture of males, effect of (3Z)-lactone release rate", "setting": "A. planipennis [2]; 0-50.0 mg lures, p=0.035", "value": "varied significantly with (3Z)-lactone release rate"}, {"measurement": "trap capture of females, effect of (3Z)-lactone release rate", "setting": "A. planipennis [2]; 0-50.0 mg lures, p=0.315", "value": "not influenced by (3Z)-lactone release rate"}, {"measurement": "captures of males compared to (3Z)-hexenol alone, 0.1 mg dose", "setting": "A. planipennis [2]; 0.1 mg lure, release rate 2.4 μg/day at 25° C., p=0.003", "value": "highest"}, {"measurement": "captures of males compared to (3Z)-hexenol alone, 1.0 mg dose", "setting": "A. planipennis [2]; 1.0 mg lure, p=0.052", "value": "marginal increase in captures of males"}]}]}
